Data from publication PMC11956004 (2025).
Starred links: 1 amine or outer side, 2 acyl side, 3 side chain; linkers in the order of their positions; H or OH if unused. Positions of bridges follow the written chain, without caps; N, C: chain ends. Non-standard residues stand in square brackets, D forms with d. Residues, ends and D or L forms follow the SMILES beside them. Chains are numbered I, II in the order given. Actinocin(9to1) = Cc1c2oc3c(C)ccc(C(=O)[*:1])c3nc-2c(C(=O)[*:2])c(N)c1=O; NMeV = CN[C@H](C(=O)O)C(C)C; Sar = CNCC(=O)O

Assays:
[1] = test system: AAAAGCCGAAAA (DNA, duplex) AAAAGCCGAAAA/TTTTCGGCTTTT; assay: CD titration; settings: Mg2+ 5 mM, Na+ (50 mM sodium cacodylate); 50 mM sodium cacodylate pH 7.2; 20 μM duplex, drug 1-4 equivalents
[2] = test system: AAAGCACGAAAA (DNA, duplex) AAAGCACGAAAA/TTTTCGTGCTTT; assay: CD titration; settings: Mg2+ 5 mM, Na+ (50 mM sodium cacodylate); 50 mM sodium cacodylate pH 7.2; 20 μM duplex, drug 1-4 equivalents
[3] = test system: AAAGCAACGAAA (DNA, duplex) AAAGCAACGAAA/TTTCGTTGCTTT; assay: CD titration; settings: Mg2+ 5 mM, Na+ (50 mM sodium cacodylate); 50 mM sodium cacodylate pH 7.2; 20 μM duplex, drug 1-4 equivalents
[4] = test system: AAGCAAACGAAA (DNA, duplex) AAGCAAACGAAA/TTTCGTTTGCTT; assay: CD titration; settings: Mg2+ 5 mM, Na+ (50 mM sodium cacodylate); 50 mM sodium cacodylate pH 7.2; 20 μM duplex, drug 1-4 equivalents
[5] = test system: d(AGCCGT)2 (DNA, duplex) AGCCGT/ACGGCT; assay: X-ray crystallography (1.57 Å); settings: Mn2+ 3 mM, Li+ 30 mM, 25 mM MES pH 6.5, 3% PEG400, 20 °C
[6] = test system: AAAAGCCGAAAA (DNA, duplex) AAAAGCCGAAAA/TTTTCGGCTTTT; assay: fluorescence quenching of Dox, Hill fit; settings: Mg2+ 5 μM (so in the source); 50 μM Na cacodylate pH 7.3 (so in the source); 1 μM Dox alone, apparent; Kd decreases when ActD added

| binding [1] | binding [2] | binding [3] | binding [4] | binding ([5]; ternary complex with actinomycin D, intercalated at C4pG5) | Kd [6] | binding ([5]; ternary complex with doxorubicin, intercalated at G2pC3) | Compound |
| --- | --- | --- | --- | --- | --- | --- | --- |
| yes | yes | yes | yes | yes | 2.13 µM | – | COc1cccc2c1C(=O)c1c(O)c3c(c(O)c1C2=O)C[C@@](O)(C(=O)CO)C[C@@H]3O[C@H]1C[C@H](N)[C@H](O)[C@H](C)O1 |
| yes | yes | yes | yes | – | – | yes | Cc1c2oc3c(C)ccc(C(=O)N[C@@H]4C(=O)N[C@H](C(C)C)C(=O)N5CCC[C@H]5C(=O)N(C)CC(=O)N(C)[C@@H](C(C)C)C(=O)O[C@@H]4C)c3nc-2c(C(=O)N[C@@H]2C(=O)N[C@H](C(C)C)C(=O)N3CCC[C@H]3C(=O)N(C)CC(=O)N(C)[C@@H](C(C)C)C(=O)O[C@@H]2C)c(N)c1=O (I: T[dV]P[Sar][NMeV] / II: T[dV]P[Sar][NMeV]; ester I:1-I:C, II:1-II:C; linker I:N-II:N via Actinocin(9to1)) |
